These compounds were tested against TNFα (Homo sapiens, UniProt P01375) (assay: TNFα FP Competitive Binding Assay). Conditions: 20 nM TNFα trimer, 1 nM OregonGreen488 probe, read-out: TNF IC50.
Sequence of TNFα (P01375 77-233 limits assumed): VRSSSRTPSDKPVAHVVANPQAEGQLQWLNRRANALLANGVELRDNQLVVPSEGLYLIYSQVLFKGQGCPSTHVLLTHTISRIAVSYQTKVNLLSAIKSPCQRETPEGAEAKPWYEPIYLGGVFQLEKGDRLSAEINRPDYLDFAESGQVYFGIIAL
Description: TNFα FP Competitive Binding Assay
Prepare 1× Assay Buffer (Water with 47 mil HEPES, 47 mM NaCl, 0.9 mM EDTA, 0.0071% Triton X-100) by adding 25 mL of 1 M HEPES, 5 mL of 5 M NaCl, 1 mL of 0.5 M EDTA, and 375 μL of a 10% Triton X-100 stock to a fresh 500 mL bottle of water.
Prepare fresh Assay Mixture containing 20 nM TNFα trimer (60 nM protein) and 1 nM 2′,7′-difluoro-3′,6′-dihydroxy-N-(2-(2-(2-((4-(isoquinolin-8-yl)-3-(4-(isoquinolin-8-yl)phenethoxy)benzyl)oxy)ethoxy)ethoxy)ethyl)-3-oxo-3H- spiro[isobenzofuran-1,9′-xanthene]-5-carboxamide probe in 1× Assay Buffer.
Top concentration of compounds, 10 mM in DMSO, dispensed in rows A-O in columns 1 and 13. Compounds are serially diluted 1:3 with DMSO in columns 2-12 or 14-24 using a 16-channel Matrix pipettor. Plates stored at −20° C.
Top concentration, 5 mM in DMSO, of compounds placed in rows A-O in columns 1 and 13.
Compounds are serially diluted 1:3 with DMSO in columns 2-12 or 14-24. Compound solutions are dispensed into replicate assay plates at 410 nL per well. Plates stored at 4° C.
TNFα FP Competitive Binding Assay Protocol • 1. Compound plates warmed to rt. • 2. Fresh Assay Mixture is prepared. • 3. Assay Mixture (20 μL) is dispensed each well of 384 assay plates using a Thermo Multidrop Combi or 16-channel Matrix pipettor. If Manual 12-point 1:3 Dilution Plates are to be tested, Assay Mix is dispensed into empty plates. Discovery Preps 12-point 1:3 Dilution Plates already contain 410 nL compound solution in DMSO. • 4. For Manual 12-point 1:3 Dilution Plates, 0.7 μL is manually transferred using a 16-channel Matrix pipettor to replicate assay plates containing 20 μL Assay Mixture for a final top compound concentration of […] (3.4% DMSO). • 5. For Discovery Preps 12-point 1:3 Dilution Plates, 20 μL Assay Mixture added the 410 nL compound solution already in the plates yields a final top compound concentration of 100 μM (2.0% DMSO). • 6. Background subtraction controls are wells P1-P8 containing only Assay Buffer. The low % inhibition controls are wells P9-P16 containing only Assay Mix. The high % inhibition are wells P17-P24 containing only 1 nM 2′,7′-difluoro-3′,6′-dihydroxy-N-(2-(2-(2-((4-(isoquinolin-8-yl)-3-(4-(isoquinolin-8-yl)phenethoxy)benzyl)oxy)ethoxy)ethoxy)ethyl)-3-oxo-3H-spiro[isobenzofuran-1,9′-xanthene]-5-carboxamide probe in 1× Assay Buffer. • 7. Plates are incubated at rt for 18-24 h in […] (CO2 is off). • 8. Prior to reading the assay, the plates are placed in a dark cabinet to equilibrate at rt for one hour. • 9. Background-subtracted fluorescence polarization (mP) is measured using a PerkinElmer Envision plate reader. • 10. Raw data is entered into Assay Explorer and dose-response curves are generated using a variable slope curve.
An IC50 of under 1000 nM was found for `CC(=O)N1CCN(c2ncc(-c3ccc4c(=O)n5n(c4c3)[C@@H](c3ccccc3OC(F)F)CC5)cn2)[C@H](C)C1` [Example 6.5, (R)-6-(2-((R)-4-acetyl-2-methylpiperazin-1-yl)pyrimidin-5-yl)-3-(2-(difluoromethoxy)phenyl)-2,3-dihydropyrazolo[1,2-a]indazol-9(1H)-one] in this work.
An IC50 of under 1000 nM was found for `Cc1nc(C(C)(C)O)ncc1-c1ccc2c(=O)n3n(c2c1)[C@@H](c1ccccc1OC(F)F)CC3` [Example 6.6] in this work.
An IC50 of under 1000 nM was found for `O=c1c2ccc(-c3cnc(N4CCO[C@H](CO)C4)nc3)cc2n2n1CC[C@H]2c1ccccc1OC(F)F` (single isomer, unassigned) [Example 2.1] in this work.
An IC50 of under 1000 nM was found for `O=C1NC[C@H]2CN(c3ncc(-c4ccc5c(=O)n6n(c5c4)[C@@H](c4ccccc4OC(F)F)CC6)cn3)CCN12` (single isomer, unassigned) [Example 6.1] in this work.
An IC50 of under 1000 nM was found for `C[C@@H]1CN(c2ncc(-c3ccc4c(=O)n5n(c4c3)[C@@H](c3ccccc3OC(F)F)CC5)cn2)CCN1C(=O)CO` (single isomer, unassigned) [Example 6.4] in this work.
An IC50 of under 1000 nM was found for `O=c1c2ccc(-c3cnc(N4CCOCC4)nc3)cc2n2n1CCCC2c1ccccc1OC(F)F` (stereo not drawn) [Example 7.1, 6-(2-(difluoromethoxy)phenyl)-3-(2-morpholinopyrimidin-5-yl)-8,9-dihydro-6H-pyridazino[1,2-a]indazol-11(7H)-one] in this work.
An IC50 of 1000 to 10000 nM was found for `CC(C)(O)c1ncc(-c2ccc3c(c2)[C@H]2[C@@H](c4ccccc4OC(F)F)CCN2C3=O)cn1` (single isomer, unassigned) [Example 10.2] in this work.
An IC50 of under 1000 nM was found for `CC(=O)N1CCN(c2ncc(-c3ccc4c(=O)n5n(c4c3)[C@@H](c3ccccc3OC(F)F)CC5)cn2)C[C@H]1C` (single isomer, unassigned) [Example 6.3] in this work.
An IC50 of 1000 to 10000 nM was found for `O=c1c2ccc(-c3cnc(N4CCOCC4)nc3)cc2n2n1CCC2c1ccccc1` (stereo not drawn) [Example 8.2, 6-(2-morpholinopyrimidin-5-yl)-3-phenyl-2,3-dihydropyrazolo[1,2-a]indazol-9(1H)-one] in this work.
An IC50 of under 1000 nM was found for `O=c1c2ccc(-c3cnc(N4CCO[C@@H](CO)C4)nc3)cc2n2n1CC[C@H]2c1ccccc1OC(F)F` (single isomer, unassigned) [Example 1.9] in this work.
An IC50 of under 1000 nM was found for `Cc1ccc(OC(F)F)c([C@H]2CCn3c(=O)c4ccc(-c5cnc(C(C)(C)O)nc5)cc4n32)c1` (single isomer, unassigned) [Example 15.2] in this work.
An IC50 of 1000 to 10000 nM was found for `Cc1cccc(C2CCn3c(=O)c4ccc(-c5cnc(N6CCOCC6)nc5)cc4n32)c1C#N` (stereo not drawn) [Example 8.1, 2-methyl-6-(6-(2-morpholinopyrimidin-5-yl)-9-oxo-1,2,3,9-tetrahydropyrazolo[1,2-a]indazol-3-yl)benzonitrile] in this work.
An IC50 of 1000 to 10000 nM was found for `COc1ccc(CO)cc1C1CCn2c(=O)c3ccc(-c4cnc(N5CCOCC5)nc4)cc3n21` (stereo not drawn) [Example 19, 3-(5-(Hydroxymethyl)-2-methoxyphenyl)-6-(2-morpholinopyrimidin-5-yl)-2,3-dihydropyrazolo[1,2-a]indazol-9(1H)-one] in this work.
An IC50 of 1000 to 10000 nM was found for `COC[C@H]1CCCN1c1ncc(-c2ccc3c(c2)[C@@H]2[C@H](c4ccccc4OC(F)F)CCN2C3=O)cn1` (single isomer, unassigned) [Example 10.3] in this work.
An IC50 of under 1000 nM was found for `CC(C)(O)c1ncc(-c2cc3c(cc2F)c(=O)n2n3[C@H](c3ccccc3OC(F)F)CC2)cn1` (single isomer, unassigned) [Example 12.2] in this work.
An IC50 of under 1000 nM was found for `Cc1ccc(OC(F)F)c([C@@H]2CCn3c(=O)c4ccc(-c5cnc(N6CCN7C(=O)NC[C@H]7C6)nc5)cc4n32)c1` (single isomer, unassigned) [Example 14.1] in this work.
An IC50 of under 1000 nM was found for `O=C1NC[C@H]2CN(c3ncc(-c4ccc5c(=O)n6n(c5c4)[C@H](c4ccccc4OC(F)F)CC6)cn3)CCN12` (single isomer, unassigned) [Example 5.1] in this work.
An IC50 of over 10000 nM was found for `CC(C)(O)c1ncc(-c2ccc3c(c2)[C@@H]2[C@H](c4ccccc4OC(F)F)CCN2C3=O)cn1` (single isomer, unassigned) [Example 10.1] in this work.
An IC50 of under 1000 nM was found for `O=C1C[C@@H](CNc2ncc(-c3ccc4c(=O)n5n(c4c3)[C@H](c3ccccc3OC(F)F)CC5)cn2)CN1` (single isomer, unassigned) [Example 4.4] in this work.
An IC50 of 1000 to 10000 nM was found for `O=C1C[C@H](CNc2ncc(-c3ccc4c(=O)n5n(c4c3)[C@@H](c3ccccc3OC(F)F)CC5)cn2)CN1` (single isomer, unassigned) [Example 4.5] in this work.
An IC50 of under 1000 nM was found for `O=c1c2ccc(-c3cnc(N4CCO[C@@H](CO)C4)nc3)cc2n2n1CC[C@@H]2c1ccccc1OC(F)F` (single isomer, unassigned) [Example 1.8] in this work.
An IC50 of under 1000 nM was found for `O=c1c2ccc(-c3cnc(N4CCC(O)CC4)nc3)cc2n2n1CCC2c1ccccc1OC(F)F` (stereo not drawn) [Example 4.2, 3-(2-(difluoromethoxy)phenyl)-6-(2-(4-hydroxypiperidin-1-yl)pyrimidin-5-yl)-2,3-dihydropyrazolo[1,2-c]indazol-9(1H)-one] in this work.
An IC50 of 1000 to 10000 nM was found for `CC(C)(O)c1ncc(-c2ccc3c(=O)n4n(c3c2)[C@H](c2ccccc2OC(F)F)CC4)cn1` (single isomer, unassigned) [Example 4.1] in this work.
An IC50 of over 10000 nM was found for `COC[C@H]1CCCN1c1ncc(-c2ccc3c(c2)[C@H]2[C@@H](c4ccccc4OC(F)F)CCN2C3=O)cn1` (single isomer, unassigned) [Example 10.4] in this work.
An IC50 of under 1000 nM was found for `O=C1NC[C@H]2CN(c3ncc(-c4ccc5c(c4)[C@H]4[C@@H](c6ccccc6OC(F)F)CCN4C5=O)cn3)CCN12` (single isomer, unassigned) [Example 11.2] in this work.
An IC50 of under 1000 nM was found for `O=c1c2ccc(-c3cnc(N4CCOCC4)nc3)cc2n2n1CCC2c1ccccc1OC(F)F` (stereo not drawn) [Example 1, 3-(2-(Difluoromethoxy)phenyl)-6-(2-morpholinopyrimidin-5-yl)-2,3-dihydropyrazolo[1,2-a]indazol-9(1H)-one] in this work.
An IC50 of 1000 to 10000 nM was found for `COC[C@H]1CCCN1c1ncc(-c2ccc3c(=O)n4n(c3c2)[C@@H](c2ccccc2OC(F)F)CC4)cn1` (single isomer, unassigned) [Example 1.5] in this work.
An IC50 of under 1000 nM was found for `O=c1c2ccc(-c3cnc(N4CCC5(CC4)CC(O)C5)nc3)cc2n2n1CC[C@H]2c1ccccc1OC(F)F` (single isomer, unassigned) [Example 4.8] in this work.
An IC50 of 1000 to 10000 nM was found for `COc1ccc(C#N)cc1C1CCn2c(=O)c3ccc(-c4cnc(N5CCOCC5)nc4)cc3n21` (stereo not drawn) [Example 8.3, 4-methoxy-3-(6-(2-morpholinopyrimidin-5-yl)-9-oxo-1,2,3,9-tetrahydropyrazolo[1,2-a]indazol-3-yl)benzonitrile] in this work.
An IC50 of under 1000 nM was found for `O=C1NC[C@@H]2CN(c3ncc(-c4ccc5c(c4)[C@H]4[C@@H](c6ccccc6OC(F)F)CCN4C5=O)cn3)CCN12` (single isomer, unassigned) [Example 11.1] in this work.
An IC50 of 1000 to 10000 nM was found for `COc1c(C#N)cccc1C1CCn2c(=O)c3ccc(-c4cnc(N5CCOCC5)nc4)cc3n21` (stereo not drawn) [Example 8.4, 2-methoxy-3-(6-(2-morpholinopyrimidin-5-yl)-9-oxo-1,2,3,9-tetrahydropyrazolo[1,2-a]indazol-3-yl)benzonitrile] in this work.
An IC50 of under 1000 nM was found for `O=c1c2ccc(-c3cnc(N4CCC5(CC4)CC(O)C5)nc3)cc2n2n1CC[C@@H]2c1ccccc1OC(F)F` (single isomer, unassigned) [Example 4.7] in this work.
An IC50 of under 1000 nM was found for `Cc1ccc(OC(F)F)c([C@H]2CCn3c(=O)c4ccc(-c5cnc(N6CCN7C(=O)NC[C@H]7C6)nc5)cc4n32)c1` (single isomer, unassigned) [Example 15.1] in this work.
An IC50 of 1000 to 10000 nM was found for `O=c1c2ccc(-c3cnc(N[C@@H]4CCOC4)nc3)cc2n2n1CC[C@@H]2c1ccccc1OC(F)F` (single isomer, unassigned) [Example 1.6] in this work.
An IC50 of 1000 to 10000 nM was found for `O=c1c2ccc(-c3cnc(N4CCC(O)CC4)nc3)cc2n2n1CCCC2c1ccccc1OC(F)F` (stereo not drawn) [Example 7.2, 6-(2-(difluoromethoxy)phenyl)-3-(2-(4-hydroxypiperidin-1-yl)pyrimidin-5-yl)-8,9-dihydro-6H-pyridazino[1,2-a]indazol-11(7H)-one] in this work.
An IC50 of 1000 to 10000 nM was found for `O=C1C[C@H](CNc2ncc(-c3ccc4c(=O)n5n(c4c3)[C@H](c3ccccc3OC(F)F)CC5)cn2)CN1` (single isomer, unassigned) [Example 4.6] in this work.

From patent US10273238B2, “Indazolones as modulators of TNF signaling” (AbbVie Inc., priority 2015, dated 2019)
